Results: patent US10214477B2, “(Hetero)aryl cyclopropylamine compounds as LSD1 inhibitors” (Oryzon Genomics S.A., priority 2011, dated 2019)
Structures can show the parent of a compound that is named as a salt.

Test system: THP-1 cells
Experiment: Induction of differentiation of THP-1 leukemia cells (CD11b membrane expression, flow cytometry)
Assay type: cell-based
Conditions: Homo sapiens; percentage of CD11b positive THP-1 cells, 96 h treatment
Protocol: By analyzing the induction of CD11b membrane expression on THP-1 cells we are assessing the ability of LSD1 inhibitors to induce terminal monocytic differentiation of a MLL-AF9 AML cell line. […] They carry t(9;11)(p21;q23) leading to MLL-MLLT3 (MLL-AF9) fusion gene. This cell line can undergo monocytic differentiation upon treatment with the appropriate stimulus. […] In this assay, 150, 000 THP-1 cells were seeded in 1 ml of complete culture medium in 6-well tissue culture plates. […] Cells were kept in the presence of test compound for 96 h at a 5% CO2 atmosphere at 37° C. After this treatment period, cells were harvested, washed twice with PBS buffer and placed in a V-bottom 96-well plate. Each treated sample was split in two. […] Percentage of CD11b positive cells, as an indicator of monocytic differentiation, was determined compared to isotype control antibody stained cells. EC50 values were calculated by non-linear regression analysis.

SMILES: N[C@H]1CC[C@@H](N[C@@H]2C[C@H]2c2ccccc2)CC1 [Example 4, (cis)-N1-((1R,2S)-2-phenylcyclopropyl)cyclohexane-1,4-diamine hydrochloride]
- EC50: 5.3 nM

SMILES: N[C@H]1CC[C@H](N[C@@H]2C[C@H]2c2ccccc2)CC1 [Example 5, (trans)-N1-((1R,2S)-2-phenylcyclopropyl)cyclohexane-1,4-diamine hydrochloride]
- EC50: 0.8 nM
